The values that follow come from article PMC7717691, “Design, synthesis, and anticonvulsant effects evaluation of nonimidazole histamine H3 receptor antagonists/inverse agonists containing triazole moiety” (Journal of Enzyme Inhibition and Medicinal Chemistry, 2020).

Structures can show the parent of a compound that is named as a salt. Where two headings read alike, the source gives them in different places.

The target in one series is T1, H3R (Homo sapiens, UniProt Q9Y5N1).
T1 construct: expressed in transfected cells
T1 sequence (Q9Y5N1 whole entry): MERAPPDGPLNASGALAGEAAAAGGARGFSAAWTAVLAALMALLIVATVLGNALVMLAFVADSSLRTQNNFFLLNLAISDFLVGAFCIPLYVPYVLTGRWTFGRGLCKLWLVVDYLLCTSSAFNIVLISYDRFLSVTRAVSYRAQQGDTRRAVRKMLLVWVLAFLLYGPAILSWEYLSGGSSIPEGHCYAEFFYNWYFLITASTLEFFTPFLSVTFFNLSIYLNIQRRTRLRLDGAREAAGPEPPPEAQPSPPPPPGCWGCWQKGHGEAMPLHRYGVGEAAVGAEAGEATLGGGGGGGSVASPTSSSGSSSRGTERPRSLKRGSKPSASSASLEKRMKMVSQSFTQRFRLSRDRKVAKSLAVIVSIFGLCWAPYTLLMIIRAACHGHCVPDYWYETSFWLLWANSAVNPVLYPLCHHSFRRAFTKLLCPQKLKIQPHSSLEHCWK
As to the kind of experiment: CRE-driven luciferase reporter gene assay, H3R antagonistic activity. It counts as cell-based. To be noted: for % Antagonism 100 nM: 100 nM compound; for % Antagonism 100 nM / % Antagonism 1 μM: HEK-293 cells expressing human H3R, mean ± SD of three experiments; for % Antagonism 1 μM: 1 μM compound; for IC50: CRE luciferase assay, HEK-293 cells, Table 1. How it is done:
cAMP-response element (CRE) reporter gene assay has been extensively used to evaluate the efficacy of GPCR antagonists or agonists. […] Initially, compounds and positive controls were tested at two concentrations (100 nM and 1 µM) to obtain the preliminary investigation of their H3R antagonistic activities. In the assays, the antagonistic activities was positively correlated with the rise of the fluorescence value and indicated by the % antagonism. For the prominent compounds IC50 values were determined at additional assays.
Human thalamus poly-A RNA (Clontech, Palo Alto, CA, USA) was used to clone the hH3R gene by RT-PCR. DNA PCR primers were designed in the light of the reported human histamine receptor gene sequences (GenBank accession no.AF140538). HEK-293 cells were cultured and transfected for the luciferase assay. The detailed procedures were described in the previous publication.
Stable HEK-293 cells, which had been co-transfected with H3R and pCRE-Luc, were seeded in a 96-well plate overnight, and were grown to 90–95% confluence[43]^,[44]. Then the cells were treated with various concentrations of tested compounds in serum-free DMEM and incubated for 20 min. Cells were then stimulated with 100 nM Histamine in serum-free DMEM containing 2 µM Forskolin and incubated for 4 h at 37 °C. Firefly luciferase assay kits (Ken-real, Shanghai, China) were used to determine the luciferase activity.
On the technique in general: A reporter such as luciferase makes a cellular process visible.

For another series, the system named is intracellular cAMP. As to the kind of experiment: Effect of compounds administrated alone on the level of intracellular cAMP. It counts as cell-based. The following applies: for effect on the level of cAMP when treated alone: compound alone, ANOVA followed by Dunnett's test, Figure 2. From the text:
It is well known that H3R is a GPCR coupled with Gαi. When the ligand (histamine) binds to H3R, the dissociated Gαi inhibits the activity of adenylate cyclase (AC) and down-regulates the level of intracellular cAMP. In this CREs driven luciferase assay, when cells were pre-treated by H3R antagonists, the downregulation of cAMP would be inhibited, and the level of intracellular cAMP would regain to the initial level.

The test system of the next series is MES-induced convulsions. Kind of series: MES-induced convulsions model. It counts as in vivo. The following applies: mice; for protection against MES-induced convulsions (reduction or abolition of THLE): 10 mg/kg, i.p., 30 min before stimulation, vs saline group. From the text:
Protection for the mice was defined as the reduction or abolition of the tonic hind limb extension (THLE) in the MES model in mice.
Ear stimulation with alternating current (0.2 s, 60 Hz, 50 mA) was used to induce the seizures in mice. The reduction or abolition of the hind limb tonic extension (THLE) of mice was considered protective against the MES-induced seizures[29]^,[48]. […]

The next series has as its system MES. The following applies: cited from earlier work.
Another series deals with PTZ. To be noted: 10 μg & 20 μg icv; cited from earlier work.

The IC50 is the point on the concentration scale where inhibition reaches its midpoint. Usually melting point stands for the temperature of the solid-liquid transition. Take `CCN(CC)CCCOc1ccc(-n2cnnc2)cc1.Cl` [Compound 3a, 3-(4-(4H-1,2,4-triazol-4-yl)phenoxy)-N,N-diethylpropan-1-amine hydrochloride]: the melting point was 105 to 106 °C. At H3R, the “% Antagonism 100 nM” value was 49.85 ± 9.73%, the “% Antagonism 1 μM” value came out at 223.76 ± 7.56% and the 50% inhibitory concentration (IC50) was found to be 2990 nM. In addition, in the series on intracellular cAMP, the “effect on the level of cAMP when treated alone” value (“effect on the level of cAMP” below) is “no significant effects”. For the same compound, the “protection against MES-induced convulsions (reduction or abolition of THLE)” value (“protection … (reduction or abolition of THLE)” for short) with MES-induced convulsions was “moderate protection”.
`Cl.c1cc(-n2cnnc2)ccc1OCCCN1CCOCC1` [Compound 3g, 4-(3-(4-(4H-1,2,4-triazol-4-yl)phenoxy)propyl)morpholine hydrochloride] registered a melting point of 237 to 239 °C. Further, at H3R, the “% Antagonism 100 nM” value is listed as −0.76 ± 4.87% and the “% Antagonism 1 μM” value is 20.24 ± 7.56%. Further, in the series on MES-induced convulsions, the “protection … (reduction or abolition of THLE)” value is “moderate protection”.
With `O=C(c1ccc(OCCCc2cnc[nH]2)cc1)C1CC1` [CPX, ciproxifan, reference compound], at H3R, the “% Antagonism 100 nM” value was found to be 33.96 ± 8.59% and the “% Antagonism 1 μM” value is reported as 63.05 ± 9.33%. Further, the “effect on the level of cAMP” value in the series on intracellular cAMP is on record as “no significant effects”.
`CN1CCN(CCCOc2ccc(-n3cnnc3)cc2)CC1.Cl` [Compound 3e, 1-(3-(4-(4H-1,2,4-triazol-4-yl)phenoxy)propyl)-4-methylpiperazine hydrochloride]: the melting point lay in the range of 220 to 223 °C. Also, on H3R, the “% Antagonism 100 nM” value worked out at 9.86 ± 0.87% and the “% Antagonism 1 μM” value worked out at 21.78 ± 3.04%.
`c1ccc(-c2ccc(-c3nncn3-c3ccc(OCCCN4CCCCC4)cc3)cc2)cc1` [Compound 3n, 1-(3-(4-(3-([1,1’-biphenyl]-4-yl)-4H-1,2,4-triazol-4-yl)phenoxy)propyl)piperidine] had a melting point of 66 to 68 °C. For the same compound, on H3R, the “% Antagonism 100 nM” value is on record as 1.03 ± 7.79% and the “% Antagonism 1 μM” value was 3.36 ± 1.27%.
As to `Cc1nncn1-c1ccc(OCCCN2CCCCC2)cc1.Cl` [Compound 3k, 1-(3-(4–(3-methyl-4H-1,2,4-triazol-4-yl)phenoxy)propyl)piperidine hydrochloride], the melting point was in the range of 240 to 242 °C. Moreover, on H3R, the “% Antagonism 100 nM” value is 133.91 ± 8.91%, the “% Antagonism 1 μM” value was found to be 183.54 ± 14.41% and inhibition was half-maximal at 21 nM (IC50). Further, the “effect on the level of cAMP” value with intracellular cAMP was “no significant effects”. For the same compound, the “protection … (reduction or abolition of THLE)” value with MES-induced convulsions was “did not achieve a significant difference from the control group”.
`c1cc(-n2cnnc2)ccc1OCCCCCN1CCCCC1` (as salt: HCl) [Compound 3q, 1-(5-(4-(4H-1,2,4-triazol-4-yl)phenoxy)pentyl)piperidine] displayed a melting point of 70 to 74 °C.
Regarding `NC(=NCc1ccc(Cl)cc1)SCCCc1cnc[nH]1` [Clobenpropit], in the series with MES (0.3, 1, 3 mg/kg i.p.), the “MES (mice)” value is on record as “protection”. In addition, the “PTZ (rats)” value in the series with PTZ is “protection”.
Consider `CCCCCCOc1ccc(-n2cnnc2)cc1` [III], for which the “MES (mice)” value with MES (10 mg/kg i.p.) is recorded as “protection”.
`Cl.c1cc(-n2cnnc2)ccc1OCCN1CCCCC1` [Compound 3o, 1-(2-(4–(4H-1,2,4-triazol-4-yl)phenoxy)ethyl)piperidine hydrochloride] displayed a melting point of 85 to 87 °C. Besides, on H3R, the “% Antagonism 100 nM” value is 45.04 ± 3.61%, the “% Antagonism 1 μM” value is recorded as 94.20 ± 2.60% and 250 nM corresponded to half-maximal inhibition (IC50). In the series on MES-induced convulsions, the “protection … (reduction or abolition of THLE)” value is given as “moderate protection”.
Compound `c1cc(-n2cnnc2)ccc1OCCCN1CCCCC1` [Compound 3h, 1–(3-(4-(4H-1,2,4-triazol-4-yl)phenoxy)propyl)piperidine] yielded a melting point of 249 to 252 °C. Also, at H3R, the “% Antagonism 100 nM” value amounted to 10.56 ± 7.94%, the “% Antagonism 1 μM” value is on record as 239.79 ± 3.17% and the half-inhibitory concentration (IC50) is 127 nM. Also, the “effect on the level of cAMP” value in the series with intracellular cAMP was “no significant effects”. Besides, the “protection … (reduction or abolition of THLE)” value with MES-induced convulsions was “moderate protection”.
For the compound `c1ccc(N2CCN(CCCOc3ccc(-n4cnnc4)cc3)CC2)cc1` [Compound 3f, 1-(3-(4-(4H-1,2,4-triazol-4-yl)phenoxy)propyl)-4-phenylpiperazine], the melting point lay in the range of 172 to 174 °C. Moreover, on H3R, the “% Antagonism 100 nM” value turned out to be 9.96 ± 10.9% and the “% Antagonism 1 μM” value is reported as 24.41 ± 6.30%.
Turning to `C[C@@H](N)Cc1cnc[nH]1` [RAMH, R-(α)-methyl-histamine, reference compound], the “effect on duration of THLE, administered alone” value in the series on MES-induced convulsions (10 mg/kg i.p. alone, p > 0.05 vs saline) is “did not affect the duration of THLE”.
Regarding `C=C[C@@]1(C)CC(=O)[C@]2(O)[C@@]3(C)[C@@H](O)CCC(C)(C)[C@@H]3[C@H](O)[C@H](OC(C)=O)[C@@]2(C)O1` [forskolin, reference compound], in the series on intracellular cAMP (forskolin 2 µM), the “rise of the cAMP level compared to the control group” value is listed as “more than 200 times”.
In turn, `Cl.c1cc(-n2cnnc2)ccc1OCCCCN1CCCCC1` [Compound 3p, 1-(4–(4-(4H-1,2,4-triazol-4-yl)phenoxy)butyl)piperidine hydrochloride] displayed a melting point of 80 to 82 °C. Besides, at H3R, the “% Antagonism 100 nM” value amounted to 25.00 ± 3.95%, the “% Antagonism 1 μM” value is on record as 90.52 ± 5.71% and the half-inhibitory concentration (IC50) was determined as 3440 nM. The “protection … (reduction or abolition of THLE)” value with MES-induced convulsions is recorded as “did not achieve a significant difference from the control group”.
`Cl.c1cc(-n2cnnc2)ccc1OCCCN1CCCC1` [Compound 3c, 4-(4-(3-(pyrrolidin-1-yl)propoxy)phenyl)-4H-1,2,4-triazole hydrochloride] yielded a melting point of 120 to 122 °C. Further, at H3R, the “% Antagonism 100 nM” value was 32.23 ± 5.69%, the “% Antagonism 1 μM” value is listed as 143.98 ± 16.16% and the IC50 is 553 nM. Besides, the “effect on the level of cAMP” value in the series on intracellular cAMP is reported as “no significant effects”. For the same compound, the “protection … (reduction or abolition of THLE)” value in the series on MES-induced convulsions was “did not achieve a significant difference from the control group”.
Turning to `NC(=O)C1CCN(CCCOc2ccc(-n3cnnc3)cc2)CC1` [Compound 3j, 1-(3-(4-(4H-1,2,4-triazol-4-yl)phenoxy)propyl)piperidine-4-carboxamide], the melting point lay within 196 to 198 °C. Further, at H3R, the “% Antagonism 100 nM” value is −4.2 ± 3.11% and the “% Antagonism 1 μM” value was determined as 6.12 ± 2.05%.
On to `NCCc1c[nH]cn1` [Histamine], for which the “effect on the level of cAMP” value in the series with intracellular cAMP is listed as “no significant effects”.
`c1ccc(C2CCN(CCCOc3ccc(-n4cnnc4)cc3)CC2)cc1` [Compound 3i, 1-(3-(4-(4H-1,2,4-triazol-4-yl)phenoxy)propyl)-4-phenylpiperidine] yielded a melting point of 124 to 126 °C. Moreover, at H3R, the “% Antagonism 100 nM” value is given as 5.19 ± 2.06% and the “% Antagonism 1 μM” value was 16.45 ± 1.90%.
Regarding `c1ccc(-c2nncn2-c2ccc(OCCCN3CCCCC3)cc2)cc1` [Compound 3l, 1-(3-(4-(3-phenyl-4H-1,2,4-triazol-4-yl)phenoxy)propyl)piperidine], the melting point was in the range of 88 to 90 °C. Moreover, on H3R, the “% Antagonism 100 nM” value was 148.62 ± 4.43%, the “% Antagonism 1 μM” value was found to be 169.04 ± 15.04% and the IC50 was 7.81 nM. Moreover, in the series on intracellular cAMP, the “effect on the level of cAMP” value is “no significant effects”. For the same compound, the “protection … (reduction or abolition of THLE)” value with MES-induced convulsions was “moderate protection”.
As for `Cl.Cl.c1cc(-n2cnnc2)ccc1OCCCN1CCNCC1` [Compound 3d, 1-(3-(4-(4H-1,2,4-triazol-4-yl)phenoxy)propyl)piperazine dihydrochloride], the melting point fell in the range of 146 to 148 °C. Also, on H3R, the “% Antagonism 100 nM” value stood at 11.33 ± 5.86% and the “% Antagonism 1 μM” value is on record as 79.4 ± 4.50%.
In turn, `CCCN(CCC)CCCOc1ccc(-n2cnnc2)cc1.Cl` [Compound 3b, 3-(4-(4H-1,2,4-triazol-4-yl)phenoxy)-N,N-dipropylpropan-1-amine hydrochloride] yielded a melting point of 180 to 183 °C. Further, at H3R, the “% Antagonism 100 nM” value is 13.24 ± 4.83% and the “% Antagonism 1 μM” value is on record as 15.02 ± 4.03%.
`c1cc(-n2cnnc2)ccc1OCCCCCN1CCCCC1` [Compound 3q, 1-(5-(4-(4H-1,2,4-triazol-4-yl)phenoxy)pentyl)piperidine]: on H3R, the “% Antagonism 100 nM” value is recorded as 1.88 ± 12.38% and the “% Antagonism 1 μM” value came out at 2.39 ± 13.85%.
